Data reported in patent publication US12201640B2, “19-nor C3,3-disubstituted C21-n-pyrazolyl steroids and methods of use thereof” (Sage Therapeutics, Inc., priority 2013, dated 2025).

Experiments:
[1] = biological target: T1, GABAA receptor α1β2γ2 (Homo sapiens, UniProt P14867+P47870); assay: Patch clamp electrophysiology, Qpatch in Ltk cells; type: cell-based; conditions: 10 μM test article, GABA EC20 2 μM, read-out: GABA (α1β2γ2) Qpatch in Ltk, % efficacy at 10 μM
T1 construct: expressed in transfected cells
Procedure: (§1) Patch Clamp Electrophysiology of Recombinant α1β2γ2 and α4β3δ GABAA Receptors
(§2) Cellular electrophysiology is used to measure the pharmacological properties of our GABAA receptor modulators in heterologous cell systems. Each compound is tested for its ability to affect GABA mediated currents at a submaximal agonist dose (GABA EC20=2 μM). LTK cells are stably transfected with the α1β2γ2 subunits of the GABA receptor and CHO cells are transiently transfected with the α4β3δ subunits via the Lipofecatamine method. Cells were passaged at a confluence of about 50-80% and then seeded onto 35 mm sterile culture dishes containing 2 ml culture complete medium without antibiotics or antimycotics. Confluent clusters of cells are electrically coupled (Pritchett et al., Science, 1988, 242, 1306-1308.). Because responses in distant cells are not adequately voltage clamped and because of uncertainties about the extent of coupling (Verdoorn et al., Neuron 1990, 4, 919-928.), cells were cultivated at a density that enables the recording of single cells (without visible connections to other cells).
(§3) Whole cell currents were measured with HEKA EPC-10 amplifiers using PatchMaster software or by using the high throughput QPatch platform (Sophion). Bath solution for all experiments contained (in mM): NaCl 137 mM, KCl 4 mM, CaCl2 1.8 mM, MgCl2 1 mM, HEPES 10 mM, D-Glucose 10 mM, pH (NaOH) 7.4. In some cases 0.005% cremophor was also added. Intracellular (pipette) solution contained: KCl 130 mM, MgCl2 1 mM, Mg-ATP 5 mM, HEPES 10 mM, EGTA 5 mM, pH 7.2. During experiments, cells and solutions were maintained at room temperature (19° C.-30° C.). For manual patch clamp recordings, cell culture dishes were placed on the dish holder of the microscope and continuously perfused (1 ml/min) with bath solution. After formation of a Gigaohm seal between the patch electrodes and the cell (pipette resistance range: 2.5 MΩ-6.0 MΩ; seal resistance range: >1 GΩ) the cell membrane across the pipette tip was ruptured to assure electrical access to the cell interior (whole-cell patch-configuration). For experiments using the QPatch system, cells were transferred as suspension to the QPatch system in the bath solution and automated whole cell recordings were performed.
(§4) Cells were voltage clamped at a holding potential of −80 mV. For the analysis of test articles, GABA receptors were stimulated by 2 μM GABA after sequential pre-incubation of increasing concentrations of the test article. Pre-incubation duration was 30 s and the duration of the GABA stimulus was 2 s. Test articles were dissolved in DMSO to form stock solutions (10 mM). Test articles were diluted to 0.01, 0.1, 1, and 10 μM in bath solution. All concentrations of test articles were tested on each cell. The relative percentage potentiation was defined as the peak amplitude in response to GABA EC20 in the presence of the test article divided by the peak amplitude in response to GABA EC20 alone, multiplied by 100.

[2] = test system: male Sprague Dawley rats; assay: Loss of righting reflex in rats; type: in vivo; conditions: Rat IV, 5 mpk
Procedure: Loss of Righting Reflex in Rats
The plasma pharmacokinetics and a qualitative assessment of sedation were obtained in male
Sprague Dawley rats according to the following procedure. Rats were dosed by intravenous bolus dose (60 seconds) via the foot dorsal vein at doses ranging from 5 to 15 mg/kg in an appropriate vehicle. In order to assess sedation, rats were gently restrained by hand to a lateral position for dose administration. […] If the animal was unable to return to an upright position, the time was recorded as the onset of loss of righting reflex (LRR). […] Sluggish or incomplete righting twice consecutively within a 30 second interval qualifies as a loss of righting reflex. After onset of LRR, animals were assessed every 5 minutes in the same manner. Recovery of righting reflex is defined as the ability of a rat to right itself completely within 20 seconds of being placed in dorsal recumbency. The duration of LRR is defined as the time interval between LRR and the return of righting reflex.

[3] = test system: PTZ-treated mice; assay: Acute PTZ (pentylenetetrazol-induced seizure) assay in mice; type: in vivo, mouse; conditions: PO, latency to tonic seizures
Procedure: The anticonvulsant effect of test compounds were assessed in the pentylenetetazol-induced seizure assay in mice similar to methods described in Giardina & Gasior (2009) Curr Protoc Pharmacol., Chapter 5. Male CD-1 mice were housed in groups of five under controlled conditions (temperature of 22±2° C. and 12:12 light-dark cycle, lights on at 8:00 am) and water and food were available ad libitum. The mice were housed for 1 week prior to behavioral testing, at which time they weighed 25-35 g. Pentylenetetrazol (PTZ, Sigma) was dissolved in sterile 0.9% saline at a concentration of 12 mg/mL concentration for subcutaneous administration. Test compounds were formulated and administered via oral gavage or intraperitoneal injection at a predetermined time-point (typically 30 or 60 minutes) prior to PTZ injection. All solutions were made fresh and were given in a volume of 10 ml/kg body weight.
Mice were acclimated to the test room for at least 30 min before compound administration. Mice were randomized into at least four test groups (vehicle and at least three doses of the test compound) with 10 mice per group. […] Following the drug pretreatment time the mice were injected s.c. with PTZ (120 mg/kg). Immediately following the PTZ injection, mice were individually placed into observation chambers (25×15×15 cm) and a three-channel timer was started. Each mouse was continuously observed for 30 min and the following behaviors were recorded by observers blinded to the treatments: 1) latency to clonic convulsions that persist for 3 sec and followed by an absence of righting reflex 2) latency to tonic convulsions, characterized by the rigid extension of all four limbs that exceeded a 90 degree angle with the body 3) latency to death 4) number of clonic and tonic convulsions. Data are presented as mean±S.E.M and one-way analysis of variance with Dunnett's or Bonferroni's post-hoc test was used to detect significant differences in latency and number between the vehicle and dose group. p values<0.05 were regarded as statistically significant.

[4] = biological target: T2, GABAA receptor α4β3δ (Homo sapiens, UniProt P28472+P48169); assay: Patch clamp electrophysiology, manual patch in CHO cells; type: cell-based; conditions: 10 μM test article, GABA EC20 2 μM, read-out: GABA (α4β3δ) Manual patch in CHO, % efficacy at 10 μM
T2 construct: expressed in transfected cells; host or cells: CHO cells (transient, lipofection)
Procedure: as §1, §2, §3, §4

T2 sequence (P48169 36-554): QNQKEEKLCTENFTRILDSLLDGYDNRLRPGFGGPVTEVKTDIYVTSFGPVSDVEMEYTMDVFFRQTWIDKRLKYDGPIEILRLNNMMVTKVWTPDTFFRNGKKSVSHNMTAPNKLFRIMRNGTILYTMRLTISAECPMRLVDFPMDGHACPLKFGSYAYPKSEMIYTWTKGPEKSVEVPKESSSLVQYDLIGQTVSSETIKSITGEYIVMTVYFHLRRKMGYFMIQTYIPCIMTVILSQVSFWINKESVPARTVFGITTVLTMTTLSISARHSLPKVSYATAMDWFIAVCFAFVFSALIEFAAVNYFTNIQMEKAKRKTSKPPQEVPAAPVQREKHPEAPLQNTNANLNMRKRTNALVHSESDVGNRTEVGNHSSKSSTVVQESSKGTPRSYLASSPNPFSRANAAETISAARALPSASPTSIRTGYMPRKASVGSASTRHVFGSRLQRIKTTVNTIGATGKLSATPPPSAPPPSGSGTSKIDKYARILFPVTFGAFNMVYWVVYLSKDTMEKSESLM
T2 sequence (P28472 26-473): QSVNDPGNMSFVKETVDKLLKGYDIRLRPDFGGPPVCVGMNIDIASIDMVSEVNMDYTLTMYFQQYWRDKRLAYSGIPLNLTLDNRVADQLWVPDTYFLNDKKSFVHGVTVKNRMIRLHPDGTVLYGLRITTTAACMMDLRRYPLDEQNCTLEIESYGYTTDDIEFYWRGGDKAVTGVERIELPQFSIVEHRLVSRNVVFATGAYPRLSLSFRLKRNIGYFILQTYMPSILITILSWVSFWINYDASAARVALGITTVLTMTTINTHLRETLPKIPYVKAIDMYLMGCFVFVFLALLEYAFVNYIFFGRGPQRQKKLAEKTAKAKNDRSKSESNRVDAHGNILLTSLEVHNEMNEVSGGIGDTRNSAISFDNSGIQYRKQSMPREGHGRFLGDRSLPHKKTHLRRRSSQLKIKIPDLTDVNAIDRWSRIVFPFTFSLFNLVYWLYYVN
T2 sequence (O14764 25-452 partner): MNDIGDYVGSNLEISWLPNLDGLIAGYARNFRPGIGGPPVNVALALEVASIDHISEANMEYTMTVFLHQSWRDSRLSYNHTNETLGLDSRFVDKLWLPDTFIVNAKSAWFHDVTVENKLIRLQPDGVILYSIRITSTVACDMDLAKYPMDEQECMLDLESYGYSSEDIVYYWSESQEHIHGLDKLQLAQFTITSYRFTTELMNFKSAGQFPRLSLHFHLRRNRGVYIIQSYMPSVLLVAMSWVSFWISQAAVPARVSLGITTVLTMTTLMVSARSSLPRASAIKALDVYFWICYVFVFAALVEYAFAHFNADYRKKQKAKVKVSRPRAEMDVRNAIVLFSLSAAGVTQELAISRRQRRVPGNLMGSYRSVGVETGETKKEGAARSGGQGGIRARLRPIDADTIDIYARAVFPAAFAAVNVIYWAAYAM
T1 sequence (P14867 28-456): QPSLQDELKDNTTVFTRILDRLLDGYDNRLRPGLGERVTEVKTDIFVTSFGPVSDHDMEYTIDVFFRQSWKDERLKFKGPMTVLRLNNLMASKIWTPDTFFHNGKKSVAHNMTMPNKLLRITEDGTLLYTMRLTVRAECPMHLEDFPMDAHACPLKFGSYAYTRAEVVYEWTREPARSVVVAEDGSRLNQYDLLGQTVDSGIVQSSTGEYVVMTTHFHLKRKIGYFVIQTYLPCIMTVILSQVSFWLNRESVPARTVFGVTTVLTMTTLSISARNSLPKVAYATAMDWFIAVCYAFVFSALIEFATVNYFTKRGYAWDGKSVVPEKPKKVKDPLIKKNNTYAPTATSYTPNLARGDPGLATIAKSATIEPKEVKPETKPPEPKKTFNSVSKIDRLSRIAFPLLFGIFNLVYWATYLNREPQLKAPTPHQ
T1 sequence (P47870 25-512 limits assumed): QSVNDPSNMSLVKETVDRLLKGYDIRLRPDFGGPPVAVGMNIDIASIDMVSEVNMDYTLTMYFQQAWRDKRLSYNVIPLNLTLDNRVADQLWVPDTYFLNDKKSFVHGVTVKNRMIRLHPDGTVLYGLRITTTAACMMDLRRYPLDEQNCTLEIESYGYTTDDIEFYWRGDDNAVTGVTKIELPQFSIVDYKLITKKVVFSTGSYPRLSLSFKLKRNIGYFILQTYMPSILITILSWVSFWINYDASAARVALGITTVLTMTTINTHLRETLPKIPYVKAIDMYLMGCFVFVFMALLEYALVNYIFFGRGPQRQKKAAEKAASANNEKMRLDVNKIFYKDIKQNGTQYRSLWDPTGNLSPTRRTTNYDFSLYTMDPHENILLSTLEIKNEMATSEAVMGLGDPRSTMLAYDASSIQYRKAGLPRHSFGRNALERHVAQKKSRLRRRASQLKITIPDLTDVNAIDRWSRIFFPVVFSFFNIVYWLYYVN
T1 sequence (P18507 40-475 partner): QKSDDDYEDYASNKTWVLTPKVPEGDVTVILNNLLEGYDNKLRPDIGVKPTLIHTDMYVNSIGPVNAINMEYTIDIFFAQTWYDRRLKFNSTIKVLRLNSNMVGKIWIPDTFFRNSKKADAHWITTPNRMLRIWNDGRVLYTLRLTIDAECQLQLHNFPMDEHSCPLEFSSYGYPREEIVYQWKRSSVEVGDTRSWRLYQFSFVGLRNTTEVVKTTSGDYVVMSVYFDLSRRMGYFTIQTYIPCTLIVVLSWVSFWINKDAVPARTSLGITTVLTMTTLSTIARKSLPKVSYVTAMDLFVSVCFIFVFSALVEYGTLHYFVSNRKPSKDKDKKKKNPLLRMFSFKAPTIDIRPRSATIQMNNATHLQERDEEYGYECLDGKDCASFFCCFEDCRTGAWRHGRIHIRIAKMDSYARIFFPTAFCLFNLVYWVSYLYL

C[C@@]1(O)CC[C@H]2[C@H](CC[C@@H]3[C@@H]2CC[C@]2(C)[C@@H](C(=O)Cn4ccc(C#N)n4)CC[C@@H]32)C1 [SA-22]
Emax at 10 µM [1]: > 500%
Duration of Rat LRR [2]: B (15-60 min)
Anticonvulsive Effect Dose (minimal effective anticonvulsant dose) [3]: A (PO) (<3 mpk)
Emax at 10 µM [4]: 100 to 500%

C[C@@]1(O)CC[C@H]2[C@H](CC[C@@H]3[C@@H]2CC[C@]2(C)[C@@H](C(=O)Cn4cc(S(C)(=O)=O)cn4)CC[C@@H]32)C1 [SA-17]
Emax at 10 µM [1]: 100 to 500%
Anticonvulsive Effect Dose (minimal effective anticonvulsant dose) [3]: A (PO) (<3 mpk)
Emax at 10 µM [4]: 100 to 500%
